#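 1) Cells in 96-well plates. 2) Compound, 48 h, 5 concentrations. 3) Linear interpolation between surrounding doses. 4) Unreached endpoint = highest concentration. At the TGI there is no net growth.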
# What was measured:
# Assay in all cases: inhibition of tumour cell growth, NCI panel, 48 h
# A498 renal = system: A498 renal
# A549 NSCLC = system: A549 NSCLC
# COLO 205 colon = system: COLO 205 colon
# HS 578T breast = system: HS 578T breast
# LOX IMVI melanoma = system: LOX IMVI melanoma
# MCF7 breast = system: MCF7 breast
# MDA-MB-435 = system: MDA-MB-435
# MOLT-4 leukemia = system: MOLT-4 leukemia
# RXF 393 renal = system: RXF 393 renal
# T-47D breast = system: T-47D breast
# TK-10 renal = system: TK-10 renal
# UO-31 renal = system: UO-31 renal
Compound,TGI (A498 renal) [µM],TGI (A549 NSCLC) [µM],TGI (COLO 205 colon) [µM],TGI (HS 578T breast) [µM],TGI (LOX IMVI melanoma) [µM],TGI (MCF7 breast) [µM],TGI (MDA-MB-435) [µM],TGI (MOLT-4 leukemia) [µM],TGI (RXF 393 renal) [µM],TGI (T-47D breast) [µM],TGI (TK-10 renal) [µM],TGI (UO-31 renal) [µM]
OC1C(O)C(O)C(O)C(O)C1O (centres undefined),> 1000,> 1000,> 1000,> 1000,> 1000,> 1000,> 1000,916,> 1000,> 1000,> 1000,> 1000
Clc1ccc(OCc2nnc3sc(-c4ccc(-c5ccc(Cl)cc5Cl)o4)nn23)c(Cl)c1,33.4,46.8,73.7,54.5,36.2,> 100,> 100,41.3,30.2,54.6,39.8,44.4
C#CC(O)/C=C/CCCCCCC#CC/C=C\CC#CCCCCCC/C=C/C(O)C#C (centres undefined),9.06,10.2,4.29,15,0.0282,25.9,5.4,0.371,28.3,5.85,11,0.915
COc1cc(/C=C2\N=C(c3ccccc3)N(C3Nc4cc5c(cc4S3)NC(N3C(=O)/C(=C/c4cc(OC)c(OC)c(OC)c4)N=C3c3ccccc3)S5)C2=O)cc(OC)c1OC (centres undefined),> 100,> 100,,> 100,> 100,> 100,> 100,> 100,> 100,> 100,> 100,> 100
Cc1ccc(C(=O)CC(Cl)=C(Cl)Cl)cc1,> 100,> 100,> 100,> 100,> 100,> 100,> 100,47,> 100,> 100,> 100,> 100
O=C1Oc2ccccc2C(=O)/C1=C/N1C(=O)/C(=C/c2ccc([N+](=O)[O-])cc2)SC1=S,27.6,> 100,53.2,34.3,> 100,> 100,50.6,> 100,79.3,51.7,,
NC(=O)c1n[nH]n(-c2ccccc2)c1=O,> 100,> 100,> 100,> 100,> 100,> 100,> 100,> 100,> 100,> 100,> 100,> 100
FC(F)(F)c1ccc2c(c1)nc(Cc1ccccc1)n2C[C@@H]1CCCN2CCCCC12 (some centres undefined),29.1,28.8,31.2,57,30.3,28.6,30.4,> 52.7,23,30.4,31.3,0.744
Cn1c(N2CCCC2)c(C=O)c(=O)n(C)c1=O,> 100,> 100,> 100,> 100,> 100,> 100,> 100,> 100,> 100,> 100,> 100,> 100
O=C1CC(Br)c2c(Cl)sc(Cl)c21 (centres undefined),38.4,45.4,28.6,47,4.4,13.8,7.38,5.54,4.91,16,7.3,15.7
C=C1CC/C=C(/C(=O)O)CC[C@H]2[C@@H]1CC2(C)C,> 100,> 100,> 100,> 100,> 100,> 100,> 100,> 100,> 100,> 100,> 100,> 100
CC(C)(C)OC(=O)C1=C(C(=O)OC(C)(C)C)SC2(S1)C(C(=O)OC(C)(C)C)=C(C(=O)OC(C)(C)C)Sc1c2ssc1=O,> 100,> 100,> 100,> 100,> 100,> 100,> 100,95.9,> 100,> 100,> 100,> 100
O=C(O)c1c(-c2c3ccc(=O)cc-3oc3cc(O)ccc23)cc2ccccc2c1-c1ccccc1,> 100,> 100,> 100,> 100,> 100,> 100,> 100,8.37,> 100,> 100,> 100,> 100
CC(C)CCCC(C)[C@H]1CC[C@H]2[C@@H]3CC[C@H]4C[C@@H](CCC=C(c5cc(Cl)c(O)c(C(=O)OC(C)(C)C)c5)c5cc(Cl)c(O)c(C(=O)OC(C)(C)C)c5)CC[C@]4(C)[C@H]3CC[C@]12C (some centres undefined),> 50,> 50,> 50,> 50,> 50,> 50,> 50,> 50,> 50,> 50,,
COC(=O)[C@H]1[C@H](C(=O)OC)[C@@H](C)c2c(ccc3c2[nH]c2ccccc23)[C@@H]1C,> 100,> 100,> 100,> 100,> 100,> 100,> 100,6.7,82.9,> 100,> 100,> 100
COC1(OC)N=C(N)C2(C#N)C(C)CC(=O)N(N(C)C)C12C#N (centres undefined),> 100,> 100,> 100,> 100,> 100,> 100,> 100,> 100,> 100,> 100,> 100,> 100
COc1cccc(NCC(=O)Nn2c(-c3ccccc3)nc3ccccc3c2=O)c1,85,> 100,> 100,> 100,> 100,> 100,> 100,> 100,> 100,> 100,> 100,> 100

# Reference: PubChem BioAssay (NCI)
